Measured values as given in patent publication US20170038686A1, “ANTHRAQUINONE COMPOUND USED FOR COLOR FILTER OF LCD” (Rohm and Haas Electronic Materials LLC, priority 2014, published 2017).

Legend:
Format in all cases: physicochemical
[1] = Solubility of dye in PGMEA; settings: solvent PGMEA
[2] = Thermal stability of films (chromaticity difference ΔEab before/after hard baking); settings: for ΔEab after baking at 230° C. for another 1 h: film further baked at 230° C. under air for another 1 h; for ΔEab after baking at 230° C. for 1 h: film with alkaline soluble acrylic resin, hard bake 230° C. under air 1 h
Procedure: For Inventive Example 1, 0.15 g of Dye 1, 1.35 g of PGMEA and 1 g of alkaline soluble acrylic resin solution (MIPHOTO RPR4022, supplied from Miwan Commercial Co., Ltd., 25 to 35% of solid content in methyl 3-methoxypropionate) were mixed and stirred for 2 hours at room temperature using a shaker. For Inventive Example 2, 0.15 g of a mixture of Dye land Dye 2 was used instead of Dye 1. The solutions were filtered with a 0.45 μm PTFE filter to get rid of big particles. Then the filtered solutions were spin coated onto a clean glass substrate with 200 and 270 rpm spin speed for 18 seconds respectively. The obtained films were first dried at 90° C. under air atmosphere for 30 minutes, and then hard baked at 230° C. under air atmosphere for 1 hour. The CIE values (xyY values and lab values) and the UV-Vis were measured before and after the hard bake.
The obtained dry films were further baked at 230° C. under air for 1 hour to evaluate thermal stability of the films. Optical performance after baking (AEab value) were 2.3 (Inventive Example 1) and 1.8 (Inventive Example 2), and the one of after further baking were 3.0 (Inventive Example 1) and 2.7 (Inventive Example 2). A smaller AEab value indicates better heat resistance.
(§1) <Performance Evaluation> • (1) Thermal stability of dyes (Mass loss measured by TGA): • The thermal stability of dye itself was determined by the mass loss of dye measured by TGA under air atmosphere at 230° C. for 1 hour. This evaluation reflects chemical stability of the dye itself. • (2) Film thickness: • Film thickness is measured by scanning the difference in height across the boundary of film and glass substrate with atomic force microscope. • (3) Chromaticity coordinates: • The chromaticity coordinate of film on a glass sheet is directly recorded with UltraScan Pro (Hunterlab) colorimeter. The light source is D65/10. • (4) Thermal stability of films (Chromaticity): • The wet film after spin coating is dried in oven at 90° C. for 30 minutes and then soft baked at 150° C. for 15 minutes. The chromaticity coordinates (L, a, b) are recorded with UltraScan Pro (Hunterlab) colorimeter. D65/10 light source is used and results are based on CIE Lab coordinates. After that the film is hard baked at target temperature (230° C.) for 1 hour and the new chromaticity coordinates (L′, a′, b′) are recorded with the method above. The thermal stability of a film is indicated by the difference of chromaticity coordinate before and after hard baking represented by the following formula;
ΔE=√{square root over ((L−L′)^2+(a−a′)^2+(b−b′)^2)}

[3] = Thermal stability of dyes (mass loss measured by TGA); settings: 230° C. for 1 hour, air atmosphere
Procedure: as §1

Cc1cc(C)c(Nc2ccc(Nc3c(C)cc(O)cc3C)c3c2C(=O)c2ccccc2C3=O)c(C)c1 [(1-((4-hydroxy-2,6-dimethylphenyl)amino)-4-(mesitylamino)-anthraquinone]
Solubility in PGMEA [1]: 2.8 wt % | ΔEab after baking at 230° C. for another 1 h [2]: 6.0 | ΔEab after baking at 230° C. for 1 h [2]: 6.8

Cc1cc(C)c(Nc2ccc(Nc3c(C)cc(OCC(O)COc4ccc(C(C)(C)c5ccc(OCC(O)COc6cc(C)c(Nc7ccc(Nc8c(C)cc(C)cc8C)c8c7C(=O)c7ccccc7C8=O)c(C)c6)cc5)cc4)cc3C)c3c2C(=O)c2ccccc2C3=O)c(C)c1 (stereo not drawn) [Dye 1]
Solubility in PGMEA [1]: 11.2 wt % | Mass loss by TGA after baking [3]: 2 wt. % | ΔEab after baking at 230° C. for another 1 h [2]: 3.0 | ΔEab after baking at 230° C. for 1 h [2]: 2.3

CC(C)Nc1ccc(NC(C)C)c2c1C(=O)c1ccccc1C2=O [Solvent Blue 36]
Solubility in PGMEA [1]: 1.92 wt % | ΔEab after baking at 230° C. for 1 h [2]: 33 (color

Cc1cc(C)c(Nc2ccc(Nc3c(C)cc(C)cc3C)c3c2C(=O)c2ccccc2C3=O)c(C)c1 [Solvent Blue 104, 1,4-bis(mesitylamino)anthraquinone]
Solubility in PGMEA [1]: 0.6 wt % | ΔEab after baking at 230° C. for another 1 h [2]: 6.1 | ΔEab after baking at 230° C. for 1 h [2]: 7.9
